From paper PMC11109052, “Metabolism characterization and toxicity of N-hydap, a marine candidate drug for lung cancer therapy by LC–MS method” (Natural Products and Bioprospecting, 2024)

Assays:
UGT1A3 = molecular target: T1, UGT1A3 (Homo sapiens, UniProt P35503); test: Incubation with recombinant human UGT isoforms: UGT1A3; format: in vitro ADME; conditions: recombinant UGT 2 μg/mL
T1 construct: purchased Cypex (Scotland, UK)
Description: Incubation of N-hydap (2.5 μM) with eight recombinant human CYP enzymes (CYP1A2, CYP2B6, CYP2C9, CYP2C19, CYP2D6, CYP3A4, CYP4A11 and CYP4F2) at three enzyme concentrations (2, 4, and 20 μg/mL) was conducted following the same procedure as described above for microsomes. Subsequently, incubation with N-hydap (1, 2.5, and 6 μM) and twelve recombinant human UGT isoforms (UGT1A1, UGT1A3, UGT1A4, UGT1A6, UGT1A7, UGT1A8, UGT1A9, UGT1A10, UGT2B4, UGT2B7, UGT2B15 and UGT2B17) was performed, with the enzyme concentration used at 2 μg/mL. All reactions were carried out in triplicate.

Cyp1a2 = test: DME activity ex vivo in MLMs and MKMs: CYP1A2 (APAP from PH); parameters: species or system mice; key to CYP1A2 Enzymatic activity: ↑: up-regulation; ↓: down-regulation; –: no change
Description: (§1) Mice were randomly divided into four groups, with eight animals in each group. The mice received oral pretreatment with N-hydap for 7 days at doses of 2, 5, and 10 mg/kg/day, which were considered as the low dose, medium dose, and high dose, respectively. Correspondingly, the control group received PBS. On the 8th day, the liver and kidneys were removed, and organs from eight mice per group were combined to prepare MLMs and MKMs using the detailed procedures above. Subsequently, we determined the activity of CYP and UGT enzymes by specific substrate metabolized with MLMs (0.5 mg/mL) and MKMs (0.2 mg/mL) in vitro. Specifically, the following selective substrates were used for the respective enzymes: PH (1 μM) for CYP1A2, DIC (1 μM) for CYP2C9, MP (90 μM) for CYP2C19, DM (1 μM) for CYP2D6, CZX (10 μM) for CYP2E1, Tes (1 μM) for CYP3A4, SN38 (1 μM) for UGT1A1, CACD (100 μM) for UGT1A3, Sero (20 μM) for UGT1A6, and Prop (1 μM) for UGT1A9. All substrates were dissolved in methanol or DMSO. The incubation procedure was carried out as mentioned above, and the reaction was terminated with VER (20 ng/mL) in ESI+ mode and CLP (200 ng/mL) in ESI− mode. In the ex vivo experiments, the activity of enzymes was measured by quantifying the production of various metabolites (nM/mg protein/min). The metabolites and their corresponding enzymes are as follows: APAP from PH, 4-OH-DIC from DIC, 4-OH-MP from MP, DXO from DM, 6-OH-CZX from CZX, 6-OH-Tes from Tes, SN38-G from SN38, CACD-G from CACD, Sero-G from Sero, Prop-G from Prop. The measurements were performed using multiple reaction monitoring (MRM) transitions, which are specific mass spectrometry transitions used for quantification. The optimized parameters for each metabolite, such as declustering potential and collision energy, were described in Supplementary Table 1. All experiments were conducted in triplicate, to ensure accuracy and reproducibility.

CYP2C9 = test: DME activity ex vivo in MLMs and MKMs: CYP2C9 (4-OH-DIC from DIC); conditions: liver microsomes of mice pretreated 7 days p.o.
Description: as §1, with “The incubation procedure was carried out as mentioned above, and the reaction was terminated with VER (20 ng/mL) in ESI+ mode and CLP (200 ng/mL) in ESI− mode.” left out, “The metabolites and their corresponding enzymes are as follows: APAP from PH, 4-OH-DIC from DIC, 4-OH-MP from MP, DXO from DM, 6-OH-CZX from CZX, 6-OH-Tes from Tes, SN38-G from SN38, CACD-G from CACD, Sero-G from Sero, Prop-G from Prop.” left out, “The optimized parameters for each metabolite, such as declustering potential and collision energy, were described in Supplementary Table 1. All experiments were conducted in triplicate, to ensure accuracy and reproducibility.” left out

Ugt1a9 = test: DME activity ex vivo in MLMs and MKMs: UGT1A9 (Prop-G from Prop); parameters: species or system mice; key to UGT1A9 Enzymatic activity: ↑: up-regulation; ↓: down-regulation; –: no change
Description: as §1

Ugt1a6a = test: Real-time PCR mRNA level after 7 days gavage: Ugt1a6a (human homolog UGT1A6); format: in vivo, mice; parameters: key to UGT1A6 mNA expression: ↑: up-regulation; ↓: down-regulation; –: no change
Description: as §1, with “The optimized parameters for each metabolite, such as declustering potential and collision energy, were described in Supplementary Table 1. All experiments were conducted in triplicate, to ensure accuracy and reproducibility.” left out
Total RNA from liver and kidney samples taken after 7 days of N-hydap gavage was extracted using the Animal Total RNA Isolation Kit (Foregene, Chengdu, Sichuan, China) following the manufacturer’s instructions. The concentrations of total RNA were determined by a nucleic acid concentration tester at 260/280 nm. […]

T1 sequence (P35503 29-534): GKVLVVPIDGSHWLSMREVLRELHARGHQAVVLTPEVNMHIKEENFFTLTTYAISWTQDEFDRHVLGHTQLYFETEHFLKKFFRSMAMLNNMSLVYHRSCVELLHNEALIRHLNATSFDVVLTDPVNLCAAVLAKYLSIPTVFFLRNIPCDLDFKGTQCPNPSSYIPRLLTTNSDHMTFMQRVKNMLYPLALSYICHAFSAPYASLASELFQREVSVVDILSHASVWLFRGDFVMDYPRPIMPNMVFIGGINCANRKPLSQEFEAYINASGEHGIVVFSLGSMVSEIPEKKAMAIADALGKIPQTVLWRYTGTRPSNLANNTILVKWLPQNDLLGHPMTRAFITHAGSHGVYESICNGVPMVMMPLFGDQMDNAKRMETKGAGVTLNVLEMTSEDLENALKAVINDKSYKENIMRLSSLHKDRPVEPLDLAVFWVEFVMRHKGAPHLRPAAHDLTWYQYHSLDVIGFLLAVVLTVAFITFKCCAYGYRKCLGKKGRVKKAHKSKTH

Structure (SMILES): CC1CCC2C(C=CC(C)C2C(=O)c2c(O)c(C3(O)CCC(O)C4OC43)cn(O)c2=O)C1 (centres unmarked) [N-hydap, N-Hydroxyapiosporamide]
- share of N-hydap glucuronidation by UGT1A3 (UGT1A3): over 80%
- CYP1A2 Enzymatic activity (Cyp1a2; Kidney): ↑
- CYP1A2 Enzymatic activity (Cyp1a2; Liver): –
- elevation of formation rate of APAP (Cyp1a2; MKMs, range stated jointly for APAP, SN38-G, 6-OH-Tes and CDCA-G): 12%-331%
- reduction of formation rate of 4-OH-DIC vs control (CYP2C9): 70%
- UGT1A9 Enzymatic activity (Ugt1a9; Kidney): ↑
- UGT1A9 Enzymatic activity (Ugt1a9; Liver): ↓
- reduction of formation rate of Prop-G vs control (Ugt1a9; liver microsomes of mice pretreated 7 days p.o.): 47%
- UGT1A6 mNA expression (Ugt1a6a; Kidney): ↑
- UGT1A6 mNA expression (Ugt1a6a; Liver): ↑
- mRNA levels of Ugt1a6a (Ugt1a6a; mice, 2, 5, 10 mg/kg p.o. 7 days, liver and kidneys): modest increase
